In ChEMBL document CHEMBL1255447, “Efflux pumps, OprD porin, AmpC beta-lactamase, and multiresistance in Pseudomonas aeruginosa isolates from cystic fibrosis patients” (2010):
In brackets after ≈: the same amount, converted by molar mass.

These compounds were tested on Pseudomonas aeruginosa (assay: Antimicrobial activity against Pseudomonas aeruginosa isolate 1681c from fibrosis patient by Etest). Conditions: not given.
Type: functional

| Compound | MIC [µg/mL] |
| --- | --- |
| C[C@H]1[C@H](NC(=O)/C(=N\OC(C)(C)C(=O)O)c2csc(N)n2)C(=O)N1S(=O)(=O)O [AZTREONAM] | 32 (≈ 73.5 µM) |

The compounds below were run on Pseudomonas aeruginosa (assay: Antimicrobial activity against Pseudomonas aeruginosa isolate 1665 from fibrosis patient by Etest). Conditions: not given.
Type: functional

| Compound | MIC [µg/mL] |
| --- | --- |
| C[C@H]1[C@H](NC(=O)/C(=N\OC(C)(C)C(=O)O)c2csc(N)n2)C(=O)N1S(=O)(=O)O [AZTREONAM] | > 64 |

These compounds were tested on Pseudomonas aeruginosa (assay: Antimicrobial activity against Pseudomonas aeruginosa isolate 17112 from fibrosis patient by Etest). Conditions: not given.
Type: functional

| Compound | MIC [µg/mL] |
| --- | --- |
| C[C@H]1[C@H](NC(=O)/C(=N\OC(C)(C)C(=O)O)c2csc(N)n2)C(=O)N1S(=O)(=O)O [AZTREONAM] | > 64 |

The compounds below were run on Pseudomonas aeruginosa (assay: Antimicrobial activity against Pseudomonas aeruginosa isolate 1352c from fibrosis patient by Etest). Conditions: not given.
Type: functional

| Compound | MIC [µg/mL] |
| --- | --- |
| C[C@H]1[C@H](NC(=O)/C(=N\OC(C)(C)C(=O)O)c2csc(N)n2)C(=O)N1S(=O)(=O)O [AZTREONAM] | 32 (≈ 73.5 µM) |

Each compound was assayed on Pseudomonas aeruginosa (assay: Antimicrobial activity against Pseudomonas aeruginosa isolate 17145c from fibrosis patient by Etest). Conditions: not given.
Type: functional

| Compound | MIC [µg/mL] |
| --- | --- |
| C[C@H]1[C@H](NC(=O)/C(=N\OC(C)(C)C(=O)O)c2csc(N)n2)C(=O)N1S(=O)(=O)O [AZTREONAM] | 0.5 (≈ 1.15 µM) |

The compounds below were run on Pseudomonas aeruginosa (assay: Antimicrobial activity against Pseudomonas aeruginosa isolate 16008 from fibrosis patient by Etest). Conditions: not given.
Type: functional

| Compound | MIC [µg/mL] |
| --- | --- |
| C[C@H]1[C@H](NC(=O)/C(=N\OC(C)(C)C(=O)O)c2csc(N)n2)C(=O)N1S(=O)(=O)O [AZTREONAM] | 0.5 (≈ 1.15 µM) |

What follows are compounds tested on Pseudomonas aeruginosa (assay: Antimicrobial activity against Pseudomonas aeruginosa isolate 1726 from fibrosis patient by Etest). Conditions: not given.
Type: functional

| Compound | MIC [µg/mL] |
| --- | --- |
| C[C@H]1[C@H](NC(=O)/C(=N\OC(C)(C)C(=O)O)c2csc(N)n2)C(=O)N1S(=O)(=O)O [AZTREONAM] | 0.5 (≈ 1.15 µM) |

These compounds were tested on Pseudomonas aeruginosa (assay: Antimicrobial activity against Pseudomonas aeruginosa isolate 1712c from fibrosis patient by Etest). Conditions: not given.
Type: functional

| Compound | MIC [µg/mL] |
| --- | --- |
| C[C@H]1[C@H](NC(=O)/C(=N\OC(C)(C)C(=O)O)c2csc(N)n2)C(=O)N1S(=O)(=O)O [AZTREONAM] | > 64 |

Each compound was assayed on Pseudomonas aeruginosa (assay: microbe, parasite or virus in culture). Conditions: isolate 13120.
Description: Antimicrobial activity against Pseudomonas aeruginosa isolate 13120 from fibrosis patient by Etest

| Compound | MIC [µg/mL] |
| --- | --- |
| C[C@H]1[C@H](NC(=O)/C(=N\OC(C)(C)C(=O)O)c2csc(N)n2)C(=O)N1S(=O)(=O)O [AZTREONAM] | 16 (≈ 36.7 µM) |

What follows are compounds tested on Pseudomonas aeruginosa (assay: Antimicrobial activity against Pseudomonas aeruginosa isolate 1248c from fibrosis patient by Etest). Conditions: not given.
Type: functional

| Compound | MIC [µg/mL] |
| --- | --- |
| C[C@H]1[C@H](NC(=O)/C(=N\OC(C)(C)C(=O)O)c2csc(N)n2)C(=O)N1S(=O)(=O)O [AZTREONAM] | > 64 |

What follows are compounds tested on Pseudomonas aeruginosa (assay: Antimicrobial activity against Pseudomonas aeruginosa isolate 3149 from fibrosis patient by Etest). Conditions: not given.
Type: functional

| Compound | MIC [µg/mL] |
| --- | --- |
| C[C@H]1[C@H](NC(=O)/C(=N\OC(C)(C)C(=O)O)c2csc(N)n2)C(=O)N1S(=O)(=O)O [AZTREONAM] | 64 (≈ 147 µM) |

Each compound was assayed on Pseudomonas aeruginosa (assay: microbe, parasite or virus in culture). Conditions: 2779-con.
Description: Antimicrobial activity against Pseudomonas aeruginosa 2779-con by Etest

| Compound | MIC [µg/mL] |
| --- | --- |
| C[C@H]1[C@H](NC(=O)/C(=N\OC(C)(C)C(=O)O)c2csc(N)n2)C(=O)N1S(=O)(=O)O [AZTREONAM] | 32 (≈ 73.5 µM) |

These compounds were tested on Pseudomonas aeruginosa (assay: Antimicrobial activity against Pseudomonas aeruginosa isolate 1240 from fibrosis patient by Etest). Conditions: not given.
Type: functional

| Compound | MIC [µg/mL] |
| --- | --- |
| C[C@H]1[C@H](NC(=O)/C(=N\OC(C)(C)C(=O)O)c2csc(N)n2)C(=O)N1S(=O)(=O)O [AZTREONAM] | 4 (≈ 9.19 µM) |

These compounds were tested on Pseudomonas aeruginosa (assay: Antimicrobial activity against Pseudomonas aeruginosa isolate 12142c from fibrosis patient by Etest). Conditions: not given.
Type: functional

| Compound | MIC [µg/mL] |
| --- | --- |
| C[C@H]1[C@H](NC(=O)/C(=N\OC(C)(C)C(=O)O)c2csc(N)n2)C(=O)N1S(=O)(=O)O [AZTREONAM] | > 64 |

What follows are compounds tested on Pseudomonas aeruginosa (assay: Antimicrobial activity against Pseudomonas aeruginosa isolate 1495c from fibrosis patient by Etest). Conditions: not given.
Type: functional

| Compound | MIC [µg/mL] |
| --- | --- |
| C[C@H]1[C@H](NC(=O)/C(=N\OC(C)(C)C(=O)O)c2csc(N)n2)C(=O)N1S(=O)(=O)O [AZTREONAM] | > 64 |

The compounds below were run on Pseudomonas aeruginosa (assay: Antimicrobial activity against Pseudomonas aeruginosa Z799/61 by Etest). Conditions: not given.
Type: functional

| Compound | MIC [µg/mL] |
| --- | --- |
| C[C@H]1[C@H](NC(=O)/C(=N\OC(C)(C)C(=O)O)c2csc(N)n2)C(=O)N1S(=O)(=O)O [AZTREONAM] | ≤ 0.12 |

These compounds were tested on Pseudomonas aeruginosa (assay: Antimicrobial activity against Pseudomonas aeruginosa M1251 by Etest). Conditions: not given.

| Compound | MIC [µg/mL] |
| --- | --- |
| C[C@H]1[C@H](NC(=O)/C(=N\OC(C)(C)C(=O)O)c2csc(N)n2)C(=O)N1S(=O)(=O)O [AZTREONAM] | 32 (≈ 73.5 µM) |

These compounds were tested on Pseudomonas aeruginosa (assay: Antimicrobial activity against Pseudomonas aeruginosa AHP Etest). Conditions: not given.
Type: functional

| Compound | MIC [µg/mL] |
| --- | --- |
| C[C@H]1[C@H](NC(=O)/C(=N\OC(C)(C)C(=O)O)c2csc(N)n2)C(=O)N1S(=O)(=O)O [AZTREONAM] | 0.5 (≈ 1.15 µM) |

The compounds below were run on Pseudomonas aeruginosa (assay: Antimicrobial activity against Pseudomonas aeruginosa isolate 15110c from fibrosis patient by Etest). Conditions: not given.
Type: functional

| Compound | MIC [µg/mL] |
| --- | --- |
| C[C@H]1[C@H](NC(=O)/C(=N\OC(C)(C)C(=O)O)c2csc(N)n2)C(=O)N1S(=O)(=O)O [AZTREONAM] | > 64 |

These compounds were tested on Pseudomonas aeruginosa (assay: Antimicrobial activity against Pseudomonas aeruginosa isolate 1253 from fibrosis patient by Etest). Conditions: not given.
Type: functional

| Compound | MIC [µg/mL] |
| --- | --- |
| C[C@H]1[C@H](NC(=O)/C(=N\OC(C)(C)C(=O)O)c2csc(N)n2)C(=O)N1S(=O)(=O)O [AZTREONAM] | 16 (≈ 36.7 µM) |

The compounds below were run on Pseudomonas aeruginosa (assay: Antimicrobial activity against Pseudomonas aeruginosa isolate 1529c from fibrosis patient by Etest). Conditions: not given.
Type: functional

| Compound | MIC [µg/mL] |
| --- | --- |
| C[C@H]1[C@H](NC(=O)/C(=N\OC(C)(C)C(=O)O)c2csc(N)n2)C(=O)N1S(=O)(=O)O [AZTREONAM] | 0.5 (≈ 1.15 µM) |

These compounds were tested on Pseudomonas aeruginosa (assay: Antimicrobial activity against Pseudomonas aeruginosa isolate 1530c from fibrosis patient by Etest). Conditions: not given.
Type: functional

| Compound | MIC [µg/mL] |
| --- | --- |
| C[C@H]1[C@H](NC(=O)/C(=N\OC(C)(C)C(=O)O)c2csc(N)n2)C(=O)N1S(=O)(=O)O [AZTREONAM] | 2 (≈ 4.59 µM) |

Each compound was assayed on Pseudomonas aeruginosa (assay: Antimicrobial activity against Pseudomonas aeruginosa isolate 1247c from fibrosis patient by Etest). Conditions: not given.
Type: functional

| Compound | MIC [µg/mL] |
| --- | --- |
| C[C@H]1[C@H](NC(=O)/C(=N\OC(C)(C)C(=O)O)c2csc(N)n2)C(=O)N1S(=O)(=O)O [AZTREONAM] | 4 (≈ 9.19 µM) |

What follows are compounds tested on Pseudomonas aeruginosa (assay: Antimicrobial activity against Pseudomonas aeruginosa isolate 13167 from fibrosis patient by Etest). Conditions: not given.
Type: functional

| Compound | MIC [µg/mL] |
| --- | --- |
| C[C@H]1[C@H](NC(=O)/C(=N\OC(C)(C)C(=O)O)c2csc(N)n2)C(=O)N1S(=O)(=O)O [AZTREONAM] | 16 (≈ 36.7 µM) |

These compounds were tested on Pseudomonas aeruginosa (assay: Antimicrobial activity against Pseudomonas aeruginosa isolate 1693c from fibrosis patient by Etest). Conditions: not given.
Type: functional

| Compound | MIC [µg/mL] |
| --- | --- |
| C[C@H]1[C@H](NC(=O)/C(=N\OC(C)(C)C(=O)O)c2csc(N)n2)C(=O)N1S(=O)(=O)O [AZTREONAM] | 1 (≈ 2.3 µM) |

What follows are compounds tested on Pseudomonas aeruginosa (assay: Antimicrobial activity against Pseudomonas aeruginosa isolate 15107 from fibrosis patient by Etest). Conditions: not given.
Type: functional

| Compound | MIC [µg/mL] |
| --- | --- |
| C[C@H]1[C@H](NC(=O)/C(=N\OC(C)(C)C(=O)O)c2csc(N)n2)C(=O)N1S(=O)(=O)O [AZTREONAM] | 2 (≈ 4.59 µM) |
